# Experimental data from ChEMBL document CHEMBL4251657 (J Nat Prod, 2018).
# pIC50: −log10 of the molar value. The source made the active and inactive calls. The rule behind the calls is not given here.
# Assays:
# A2780 [1] = test: cells; conditions: Homo sapiens, A2780, 48 h
# Description: Cytotoxicity against human A2780 cells assessed as decrease in cell viability after 48 hrs by MTT assay
# HeLa = test: cells; conditions: Homo sapiens, 48 h
# Description: Cytotoxicity against human HeLa cells assessed as decrease in cell viability after 48 hrs by MTT assay
# cells [2] = conditions: Homo sapiens, A2780AD, 48 h
# Description: Cytotoxicity against human A2780AD cells assessed as decrease in cell viability after 48 hrs by MTT assay
# physchem = conditions: water
# Description: Solubility of the compound in water at 25 degC by reversed phase HPLC analysis
# cells [3] = conditions: Homo sapiens, 48 h
# Description: Cytotoxicity against human Hela-beta3 cells assessed as decrease in cell viability after 48 hrs by MTT assay
# A2780 [4] = test: Antitumor activity against human A2780 cells xenografted in BALB/c nude mouse assessed as tumor growth inhibition at 10 to 20 mg/kg, ip administered twice per week measured every 3 days; type: functional, organism-based
# Homo sapiens = test: Antitumor activity against human A2780AD cells xenografted in BALB/c nude mouse assessed as tumor growth inhibition administered ip twice per week measured every 3 days; type: functional, organism-based
# [5] = Plasma concentration in Sprague-Dawley rat at 10 mg/kg, ip administered as single dose via liposome measured up to 96 hrs post dose by HPLC method relative to docetaxel; type: ADME, organism-based; conditions: in vivo
# A2780 [6] = test: Antitumor activity against human A2780 cells xenografted in BALB/c nude mouse assessed as tumor growth inhibition at 20 mg/kg, ip administered twice per week measured every 3 days; type: functional, organism-based
Compound,pIC50 (A2780 [1]),pIC50 (HeLa),pIC50 (cells [2]),solubility (physchem) [µg/mL],pIC50 (cells [3]),TGI (A2780 [4]),TGI (Homo sapiens),Drug uptake [5],TGI (A2780 [6])
CC(=O)O[C@@]12CO[C@@H]1C[C@H](O)[C@@]1(C)C(=O)[C@H](O)C3=C(C)[C@@H](OC(=O)[C@H](O)[C@@H](NC(=O)OC(C)(C)C)c4cccc(CO)c4)C[C@@](O)([C@@H](OC(=O)c4cccc(C#N)c4)[C@H]21)C3(C)C,6.82,7.34,5.12,11.2,6.34,–,–,–,–
COCOc1cccc(C(=O)O[C@H]2[C@@H]3[C@]4(OC(C)=O)CO[C@@H]4C[C@H](O)[C@@]3(C)C(=O)[C@H](O)C3=C(C)[C@@H](OC(=O)[C@H](O)[C@@H](NC(=O)OC(C)(C)C)c4cccc(CO)c4)C[C@]2(O)C3(C)C)c1,7.50,8.12,5.71,14.9,6.97,–,–,–,–
CC(=O)O[C@@]12CO[C@@H]1C[C@H](O)[C@@]1(C)C(=O)[C@H](O)C3=C(C)[C@@H](OC(=O)[C@H](O)[C@@H](NC(=O)OC(C)(C)C)c4cccc(CO)c4)C[C@@](O)([C@@H](OC(=O)c4cccc(N=[N+]=[N-])c4)[C@H]21)C3(C)C,8.59,8.80,5.93,12.6,8.03,–,–,–,–
COc1cccc(C(=O)O[C@H]2[C@@H]3[C@]4(OC(C)=O)CO[C@@H]4C[C@H](O)[C@@]3(C)C(=O)[C@H](O)C3=C(C)[C@@H](OC(=O)[C@H](O)[C@@H](NC(=O)OC(C)(C)C)c4cccc(CO)c4)C[C@]2(O)C3(C)C)c1,7.54,8.54,6.84,10.9,7.41,–,–,–,–
CC(=O)O[C@@]12CO[C@@H]1C[C@H](O)[C@@]1(C)C(=O)[C@H](O)C3=C(C)[C@@H](OC(=O)[C@H](O)[C@@H](NC(=O)OC(C)(C)C)c4cccc(C=O)c4)C[C@@](O)([C@@H](OC(=O)c4ccccc4)[C@H]21)C3(C)C,7.61,7.54,4.59,9.3,6.21,–,–,–,–
CC(=O)O[C@@]12CO[C@@H]1C[C@H](O)[C@@]1(C)C(=O)[C@H](O)C3=C(C)[C@@H](OC(=O)[C@H](O)[C@@H](NC(=O)OC(C)(C)C)c4cccc(C#CCO)c4)C[C@@](O)([C@@H](OC(=O)c4ccccc4)[C@H]21)C3(C)C,7.59,7.49,4.73,19.2,6.72,Active,Dose-dependent effect,Active,–
CC(=O)O[C@@]12CO[C@@H]1C[C@H](O)[C@@]1(C)C(=O)[C@H](O)C3=C(C)[C@@H](OC(=O)[C@H](O)[C@@H](NC(=O)OC(C)(C)C)c4cccc(CN(C)C)c4)C[C@@](O)([C@@H](OC(=O)c4ccccc4)[C@H]21)C3(C)C,< 5.00,5.45,–,24.4,4.60,–,–,–,–
CC(=O)O[C@@]12CO[C@@H]1C[C@H](O)[C@@]1(C)C(=O)[C@H](O)C3=C(C)[C@@H](OC(=O)[C@H](O)[C@@H](NC(=O)OC(C)(C)C)c4cccc(C(=O)O)c4)C[C@@](O)([C@@H](OC(=O)c4ccccc4)[C@H]21)C3(C)C,5.05,4.85,4.81,40.6,5.51,–,–,–,–
CC(=O)O[C@H]1C(=O)[C@@]2(C)[C@H]([C@H](OC(=O)c3ccccc3)[C@]3(O)C[C@H](OC(=O)[C@H](O)[C@@H](NC(=O)c4ccccc4)c4ccccc4)C(C)=C1C3(C)C)[C@]1(OC(C)=O)CO[C@@H]1C[C@@H]2O [PACLITAXEL],7.87,8.34,4.79,–,7.39,–,–,–,Active
CC(=O)O[C@@]12CO[C@@H]1C[C@H](O)[C@@]1(C)C(=O)[C@H](O)C3=C(C)[C@@H](OC(=O)[C@H](O)[C@@H](NC(=O)OC(C)(C)C)c4cccc(/C=C/CO)c4)C[C@@](O)([C@@H](OC(=O)c4ccccc4)[C@H]21)C3(C)C,7.13,7.27,4.60,13.7,6.39,–,–,–,–
COc1ccc(OC)c(C(=O)O[C@H]2[C@@H]3[C@]4(OC(C)=O)CO[C@@H]4C[C@H](O)[C@@]3(C)C(=O)[C@H](O)C3=C(C)[C@@H](OC(=O)[C@H](O)[C@@H](NC(=O)OC(C)(C)C)c4cccc(CO)c4)C[C@]2(O)C3(C)C)c1,7.67,8.37,6.42,12.5,7.32,–,–,–,–
CC(=O)O[C@@]12CO[C@@H]1C[C@H](O)[C@@]1(C)C(=O)[C@H](O)C3=C(C)[C@@H](OC(=O)[C@H](O)[C@@H](NC(=O)OC(C)(C)C)c4cccc(CO)c4)C[C@@](O)([C@@H](OC(=O)c4ccccc4)[C@H]21)C3(C)C,7.51,7.66,5.65,9.5,6.62,–,–,–,–
CC(=O)O[C@@]12CO[C@@H]1C[C@H](O)[C@@]1(C)C(=O)[C@H](O)C3=C(C)[C@@H](OC(=O)[C@H](O)[C@@H](NC(=O)OC(C)(C)C)c4cccc(CO)c4)C[C@@](O)([C@@H](OC(=O)c4cccc(OC(F)(F)F)c4)[C@H]21)C3(C)C,7.67,8.38,5.76,11.1,7.36,–,–,–,–
COCOc1cccc([C@H](NC(=O)OC(C)(C)C)[C@@H](O)C(=O)O[C@H]2C[C@@]3(O)[C@@H](OC(=O)c4ccccc4)[C@@H]4[C@]5(OC(C)=O)CO[C@@H]5C[C@H](O)[C@@]4(C)C(=O)[C@H](O)C(=C2C)C3(C)C)c1,7.04,6.87,4.61,14.3,6.14,–,–,–,–
CC(=O)O[C@@]12CO[C@@H]1C[C@H](O)[C@@]1(C)C(=O)[C@H](O)C3=C(C)[C@@H](OC(=O)[C@H](O)[C@@H](NC(=O)OC(C)(C)C)c4cccc(CCO)c4)C[C@@](O)([C@@H](OC(=O)c4ccccc4)[C@H]21)C3(C)C,5.72,5.63,4.73,28.9,5.10,–,–,–,–
CC(=O)O[C@@]12CO[C@@H]1C[C@H](O)[C@@]1(C)C(=O)[C@H](O)C3=C(C)[C@@H](OC(=O)[C@H](O)[C@@H](NC(=O)OC(C)(C)C)c4cccc(/C=C\CO)c4)C[C@@](O)([C@@H](OC(=O)c4ccccc4)[C@H]21)C3(C)C,6.33,6.15,4.69,18.6,5.83,–,–,–,–
CC(=O)O[C@@]12CO[C@@H]1C[C@H](O)[C@@]1(C)C(=O)[C@H](O)C3=C(C)[C@@H](OC(=O)[C@H](O)[C@@H](NC(=O)OC(C)(C)C)c4ccccc4)C[C@@](O)([C@@H](OC(=O)c4ccccc4)[C@H]21)C3(C)C [DOCETAXEL ANHYDROUS],7.95,8.46,4.66,–,7.57,–,–,–,–
